“Also recorded” adds a separate entry of the source. Where a SMILES comes first, the peptide text is derived from it. Bridges are numbered along the chain shown (N, C = ends). Where no end group is shown, it is not given here. [ ]: non-standard residue; d: D form.
What was measured:
BxPC-3 cells = assay: BxPC-3 cell survival assay, HGF proteins alone; format: cell-based, human
Description: BxPC-3 cells were obtained from ATCC and maintained in cell culture medium (RPMI, 10% FBS (Sigma), 50 U/ml penicillin/50 μg/ml streptomycin, 2 mM glutamine). For the survival assay, cells were plated at 10,000 cells/well in 96 well tissue culture plates (Falcon 353072) in 50 μl assay diluent (RPMI, 0.1% BSA (Sigma) 50 U/ml penicillin/50 μg/ml streptomycin, 2 mM glutamine). Cells were allowed to attach for 1-2 h in a 37° C. CO2 incubator. Human HGF proteins (HGF, scHGF or scHGF plus peptide titrations) were pre-incubated at room temperature in assay diluent. HGF/peptide mixtures were added to cells in microtiter plates in triplicate at 50 μl per well and plates were incubated at 37° C. in a CO2 incubator. […] After 72 h, 25 μl alamar Blue (Serotec, BUF012B) was added to each well and incubate an additional 2 h at 37° C. in a CO2 incubator. Plates were agitated vigorously for 10 min at room temperature, and fluorescence was read at 530-590 nm in a fluorescent plate reader.

[1] = target: zymogen-like pro-MSP β-chain (zMSP β); assay: Activation of zMSP β binding to RON; settings: activation of zMSP β to bind RON
Description: The phage approach was also tested against pro-Macrophage Stimulating Protein (pro-MSP), another plasminogen-related growth factor, which, following proteolytic cleavage, signals through the RON receptor, having important roles in inflammation and cancer. Using a new cyclic library based on ZAP.03 (ZAPtide3 Library) and the described selection method a ZAPtide was discovered, ZAP3.2 that was specific for activating the zymogen-like pro-MSP β-chain (zMSP β) to bind RON with an AC50 of 134 μM.

scHGF [2] = target: T1, scHGF (Homo sapiens, UniProt P14210, R494E); assay: BxPC-3 cell survival assay, peptide titrations in the presence of scHGF; format: cell-based; set-up: Full-length recombinant HGF proteins were expressed in 1-liter fermentation cultures of Chinese hamster ovary (CHO) cells; made in house; host or cells: CHO cells (scHGF); settings: BxPC-3 cells, serum starvation, 72 h, alamar Blue; read-out: EC50 of activation of scHGF, cell survival
T1 sequence (P14210 32-728 R494E): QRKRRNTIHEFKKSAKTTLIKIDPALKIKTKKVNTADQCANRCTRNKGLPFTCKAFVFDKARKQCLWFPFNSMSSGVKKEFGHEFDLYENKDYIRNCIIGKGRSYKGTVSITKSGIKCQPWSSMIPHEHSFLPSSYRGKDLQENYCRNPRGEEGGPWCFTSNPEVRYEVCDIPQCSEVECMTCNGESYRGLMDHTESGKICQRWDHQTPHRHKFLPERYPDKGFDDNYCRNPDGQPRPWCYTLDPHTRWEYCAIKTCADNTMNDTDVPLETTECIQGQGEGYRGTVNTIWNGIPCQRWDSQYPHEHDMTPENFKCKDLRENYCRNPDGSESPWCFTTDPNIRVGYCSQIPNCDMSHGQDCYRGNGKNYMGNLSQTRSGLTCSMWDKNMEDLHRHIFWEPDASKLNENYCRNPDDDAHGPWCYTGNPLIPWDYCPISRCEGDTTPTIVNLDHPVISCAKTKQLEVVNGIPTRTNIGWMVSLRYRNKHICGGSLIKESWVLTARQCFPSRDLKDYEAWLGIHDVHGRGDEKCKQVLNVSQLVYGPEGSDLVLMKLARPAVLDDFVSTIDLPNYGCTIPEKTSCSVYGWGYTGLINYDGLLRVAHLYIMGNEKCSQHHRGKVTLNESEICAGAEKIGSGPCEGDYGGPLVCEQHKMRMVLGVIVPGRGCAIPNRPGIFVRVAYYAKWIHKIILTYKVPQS
Description: BxPC-3 cells were obtained from ATCC and maintained in cell culture medium (RPMI, 10% FBS (Sigma), 50 U/ml penicillin/50 μg/ml streptomycin, 2 mM glutamine). For the survival assay, cells were plated at 10,000 cells/well in 96 well tissue culture plates (Falcon 353072) in 50 μl assay diluent (RPMI, 0.1% BSA (Sigma) 50 U/ml penicillin/50 μg/ml streptomycin, 2 mM glutamine). Cells were allowed to attach for 1-2 h in a 37° C. CO2 incubator. Human HGF proteins (HGF, scHGF or scHGF plus peptide titrations) were pre-incubated at room temperature in assay diluent. HGF/peptide mixtures were added to cells in microtiter plates in triplicate at 50 μl per well and plates were incubated at 37° C. in a CO2 incubator. Final concentrations of HGF variants were 400 ng/ml and peptide concentrations were titrated accordingly. After 72 h, 25 μl alamar Blue (Serotec, BUF012B) was added to each well and incubate an additional 2 h at 37° C. in a CO2 incubator. Plates were agitated vigorously for 10 min at room temperature, and fluorescence was read at 530-590 nm in a fluorescent plate reader.
Using Bx-PC3 cells, peptide titrations in the presence of scHGF were performed and observed robust activation was seen of scHGF signaling through Met, which reached levels equivalent HGF-induced signaling.
(§1) Cellular assays were used to address whether the optimized ZAPtides act as allosteric activators of pro-HGF and stimulate Met signaling in biologically relevant settings of cell survival and migration. […] Importantly, ZAPtides required the presence of scHGF as well as induced […] cell survival that was antagonized by an HGF-blocking anti-Met antibody, each confirming Met pathway selectivity.

scHGF [3] = target: T1, scHGF; assay: In vitro wound closure assay, HeLa cell migration in the presence of scHGF; format: cell-based; set-up: Full-length recombinant HGF proteins were expressed in 1-liter fermentation cultures of Chinese hamster ovary (CHO) cells; made in house; host or cells: CHO cells (scHGF); Met is endogenous in HeLa cells; settings: HeLa cells, scHGF present, read-out: EC50 of HeLa cell migration response
Excerpt: as §1

scHGF β = target: T2, scHGF β (Homo sapiens, UniProt P14210, R494E); assay: scHGF β activation/Met binding assay (biolayer interferometry); settings: for fold more potent than previously described peptides derived from the native HGF β N-terminus: versus Landgraf et al. 2010 peptides
T2 construct: the scHGF β-chain (residues Asn^479 to Ser^728) contains the R494E mutation; His-tag (C); made in house; host or cells: insect cells (pAcGP67 vector)
T2 sequence (P14210 479-728 R494E): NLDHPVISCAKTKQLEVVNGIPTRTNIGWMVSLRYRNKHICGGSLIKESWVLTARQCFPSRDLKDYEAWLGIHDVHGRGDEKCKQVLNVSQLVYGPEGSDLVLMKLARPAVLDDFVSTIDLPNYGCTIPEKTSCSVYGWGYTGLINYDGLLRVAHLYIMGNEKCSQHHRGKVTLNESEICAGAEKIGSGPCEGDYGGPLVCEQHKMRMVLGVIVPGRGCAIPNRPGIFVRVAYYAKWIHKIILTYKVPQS
T2 sequence (P08581 27-515 partner limits assumed): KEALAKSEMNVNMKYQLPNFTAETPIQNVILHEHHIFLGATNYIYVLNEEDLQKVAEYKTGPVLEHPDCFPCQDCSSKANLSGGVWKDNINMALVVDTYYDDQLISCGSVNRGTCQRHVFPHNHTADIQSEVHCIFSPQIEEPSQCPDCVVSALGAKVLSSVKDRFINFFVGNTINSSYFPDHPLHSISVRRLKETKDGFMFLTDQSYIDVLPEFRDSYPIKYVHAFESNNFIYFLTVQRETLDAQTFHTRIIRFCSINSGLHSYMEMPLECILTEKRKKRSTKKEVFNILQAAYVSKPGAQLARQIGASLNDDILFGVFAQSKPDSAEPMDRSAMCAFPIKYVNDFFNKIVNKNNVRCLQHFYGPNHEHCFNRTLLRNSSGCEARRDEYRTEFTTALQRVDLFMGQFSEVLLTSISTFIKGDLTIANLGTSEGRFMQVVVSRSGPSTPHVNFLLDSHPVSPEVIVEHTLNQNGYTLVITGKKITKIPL
Description: (§2) Met binding assays were carried out utilizing the OctetRed™ biolayer interferometry instrument (ForteBio, Inc.) as reported previously (Landgraf, K. E. et al. (2010) J Biol Chem 285: 40362-72). Biotinylated Met ECD (Sema/PSI-AviTag) was captured on the surface of streptavidin optical sensor tips (SA biosensors, ForteBio, Inc.), and transferred into buffer containing 0.5 μM scHGF β-chain variants in the presence of increasing concentration of indicated peptides. Association and dissociation reactions were monitored to ensure reversible binding between scHGF β and Met. Binding was quantified using the steady-state levels of surface response from the association reaction. Equilibrium constants were derived by least squares fitting of the titration data to a single-site binding equation. Errors reported are ±stdev of n=3 independent experiments.
Based on the finding that the consensus ZAPs contain features consistent with binding and inserting into the activation pocket, several related peptides were synthesized and utilized in a previously established scHGF β activation assay to assess their affinities and ability to active Met binding (Landgraf, K. E. et al. (2010) J Biol Chem 285: 40362-72). Since scHGF β can only weakly interact with the Met Sema-PSI domain compared to the active HGF β form, biolayer interferometry was used in the activation assay to measure the ability of a peptide to directly enhance the binding affinity of scHGF β to a streptavidin sensor surface coated with biotinylated Met (Landgraf, K. E. et al. (2010) J Biol Chem 285: 40362-72). Thus, titration of an activator peptide should result in a significant increase in the surface response signal due to enhanced scHGF β binding to Met.

scHGF β D672N mutant = target: T3, scHGF β D672N mutant (Homo sapiens, UniProt P14210, D672N/R494E); assay: scHGF β activation/Met binding assay with activation-pocket mutant; settings: Asp672 to Asn in activation pocket
T3 construct: the scHGF β-chain (residues Asn^479 to Ser^728) contains the R494E mutation; His-tag (C); made in house; host or cells: insect cells (pAcGP67 vector)
T3 sequence (P14210 479-728 R494E/D672N): as the sequence (P14210 479-728 R494E) above, with D194N counted along it
Description: as §2
However, the partial activity observed with Asp in position 3 was consistent with the fact that the native sequence contains a highly similar Asn residue, but the strained backbone conformation necessary to accommodate the Asp during N-terminal insertion would be energetically unfavorable. […] In addition, the solubility of this peptide variant is enhanced by the polar aspartic acid side chain while maintaining increased activity compared to the IVDG.14 variant.

Met = assay: Binding of peptide-zHGF β complex to surface immobilized Met ECD (biolayer interferometry); settings: read-out: affinity of peptide-zHGF β complex for Met
Description: as §2

Peptide solubility = format: physicochemical
prethrombin-2 = target: T4, prethrombin-2 (Homo sapiens, UniProt P00734); assay: Zymogen serine protease activity assay (Ile-Pro-Arg-pNA hydrolysis); format: biochemical; settings: 100 nM prethrombin-2, 2 mM Ile-Pro-Arg-pNA, peptide titration
T4 construct: Zymogen serine proteases prethrombin-2 and Protein C were purchased from Haematologic Technologies, Inc; purchased Haematologic Technologies, Inc. (Essex Junction, Vt.)
Description: (§3) Zymogen serine proteases prethrombin-2 and Protein C were purchased from Haematologic Technologies, Inc. (Essex Junction, Vt.). Kinetic assays were carried out in 20 mM Hepes, 150 mM NaCl, 5 mM CaCl2, 0.01% Triton X-100, pH 7.2. All reactions contained 100 nM of enzyme plus 2 mM Ile-Pro-Arg-pNA substrate. IVGG.147A was titrated and the initial rates of substrate hydrolysis were measured in clear bottom 96-well plates using 405 nm absorbance on a SpectraMax Plus (Molecular Devices, Inc.).
(§4) The IVGG.14 peptide activator of pro-HGF took advantage of the canonical trypsin-like activation mechanism in order to allosterically activate binding of the serine protease-like domain within pro-HGF to Met. Given this activation mechanism is highly conserved among zymogens of the trypsin-like family of serine proteases and the fact that these proteins share a high degree of structural homology within the serine protease-like domains as well as the activation pockets, ZAPs for pro-HGF were analyzed for ability allosterically activate other zymogen serine proteases.

Protein C = target: T5, Protein C (Homo sapiens, UniProt P04070); assay: as above; format: biochemical; settings: 100 nM Protein C, 2 mM Ile-Pro-Arg-pNA, peptide titration
T5 construct: purchased Haematologic Technologies, Inc. (Essex Junction, Vt.)
T5 sequence (P04070 19-461 limits assumed): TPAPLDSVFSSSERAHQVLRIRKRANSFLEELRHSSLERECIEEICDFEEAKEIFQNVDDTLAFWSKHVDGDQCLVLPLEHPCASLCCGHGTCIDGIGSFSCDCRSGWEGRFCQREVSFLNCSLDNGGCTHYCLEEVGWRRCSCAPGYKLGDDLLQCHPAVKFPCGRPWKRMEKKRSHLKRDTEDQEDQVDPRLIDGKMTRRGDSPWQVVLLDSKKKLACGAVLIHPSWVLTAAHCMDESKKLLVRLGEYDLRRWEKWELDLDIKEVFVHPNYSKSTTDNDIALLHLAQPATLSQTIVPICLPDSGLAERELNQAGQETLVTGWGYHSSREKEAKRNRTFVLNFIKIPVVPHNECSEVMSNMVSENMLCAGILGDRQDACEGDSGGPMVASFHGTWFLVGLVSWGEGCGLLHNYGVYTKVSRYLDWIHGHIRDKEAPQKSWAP
Description: as §3, §4

## HGF: proteolytically activated two-chain human hepatocyte growth factor, recombinant
BxPC-3 cells; 200 ng/ml (FIG. 11A)
  stimulation of cell survival by HGF protein alone: potently stimulate cell survival
BxPC-3 cells; 400 ng/ml (FIG. 6A)
  stimulation of cell survival by HGF protein alone: potently stimulate cell survival

## ZAP3.2: ZAPtide from the cyclic ZAPtide3 Library based on ZAP.03, activating zymogen-like pro-MSP β-chain (zMSP β) to bind RON (IVGGEPVWYVW; not fully specified)
[1]
  AC50: 134 µM

## CC[C@H](C)[C@H](N)C(=O)N[C@H](C(=O)NCC(=O)NCC(=O)N[C@H]1CSSC[C@@H](C(=O)N[C@H](C(N)=O)[C@@H](C)CC)NC(=O)[C@H](CCC(=O)O)NC(=O)[C@H](CCC(=O)O)NC(=O)[C@H](CCCNC(=N)N)NC(=O)[C@H](CC(=O)O)NC(=O)[C@H](CCSC)NC(=O)[C@H](Cc2c[nH]c3ccccc23)NC(=O)[C@H](Cc2ccc(O)cc2)NC(=O)[C@@H]2CCCN2C1=O)[C@@H](C)CC [ZAP.03, I I G G C P Y W M D R E E C I] (H-IIGGCPYWMDREECI-NH2; disulfide 5-14)
scHGF [2]
  EC50: 0.4 µM
scHGF [3]
  EC50: 0.06 µM

## CC[C@H](C)[C@H](N)C(=O)N[C@H](C(=O)NCC(=O)NCC(=O)N[C@@H](Cc1ccc(O)cc1)C(=O)N1CCC[C@H]1C(=O)N[C@@H](Cc1c[nH]c2ccccc12)C(=O)N[C@@H](Cc1c[nH]c2ccccc12)C(=O)N[C@@H](CCSC)C(=O)N[C@@H](CC(=O)O)C(=O)N[C@H](C(N)=O)C(C)C)C(C)C [IVGG.14, I V G G Y P W W M D V] (H-IVGGYPWWMDV-NH2)
scHGF β
  fold improvement of AC50 over previous activators: > 90 fold
  fold more potent than previously described peptides derived from the native HGF β N-terminus: ca. 60 fold
scHGF β; peptide titration with 0.5 μM scHGF β, biotinylated Met ECD on sensor, ±stdev of n=3
  Kd: 34 ± 3 µM
scHGF β; peptide-dependent activation of zHGF β binding to surface immobilized Met ECD, read-out: apparent activation constant (AC50)
  AC50: 21 µM
scHGF β D672N mutant
  activity of peptide with scHGF β D672N: lack of activity; also recorded: completely abolished activity
scHGF [2]
  EC50: ~20 µM
Met
  Kd: 0.69 µM

## CC[C@H](C)[C@H](N)C(=O)N[C@H](C(=O)NCC(=O)NCC(=O)N[C@@H](Cc1ccc(O)cc1)C(=O)N1CCC[C@H]1C(=O)N[C@@H](C)C(=O)N[C@@H](Cc1c[nH]c2ccccc12)C(=O)N[C@@H](CCSC)C(=O)N[C@@H](CC(=O)O)C(=O)N[C@H](C(N)=O)C(C)C)C(C)C [IVGG.147A, I V G G Y P A W M D V] (H-IVGGYPAWMDV-NH2; N-terminus assumed)
Peptide solubility
  solubility, in words: exceptionally soluble
prethrombin-2
  initial rate of substrate hydrolysis (Vi): significantly increased
Protein C
  initial rate of substrate hydrolysis (Vi): significantly increased

## CC[C@H](C)[C@H](N)C(=O)N[C@H](C(=O)N[C@H](CC(=O)O)C(=O)NCC(=O)N[C@@H](Cc1ccc(O)cc1)C(=O)N1CCC[C@H]1C(=O)N[C@@H](Cc1c[nH]c2ccccc12)C(=O)N[C@@H](Cc1c[nH]c2ccccc12)C(=O)N[C@@H](CCSC)C(=O)N[C@@H](CC(=O)O)C(=O)N[C@H](C(N)=O)C(C)C)C(C)C [IVdG.14] (H-IV[dD]GYPWWMDV-NH2)
scHGF β
  fold more potent than previously described peptides derived from the native HGF β N-terminus: 100 fold
Peptide solubility
  solubility, in words: enhanced
